# Data published in ChEMBL document CHEMBL4725252, “Development of an efficient semisynthetic modification of FR901459 via a novel regioselective N, O-acyl migration” (Bioorg Med Chem Lett, 2020).
# Square brackets hold non-standard residues; d marks the D form. Peptide text beside a SMILES is read from it. MeBmt = C/C=C/C[C@@H](C)[C@@H](O)[C@H](NC)C(=O)O; NMeL = CN[C@@H](CC(C)C)C(=O)O; NMeV = CN[C@H](C(=O)O)C(C)C; Sar = CNCC(=O)O
# Legend:
# [1] = test system: Hepatitis C virus; assay: Ratio of EC50 for FR901459 to EC50 for test compound for antiviral activity against HCV subgenomic replicon assessed as inhibition of replication by qRT-PCR analysis; format: functional, Hepacivirus hominis
# [2] = test system: Hepatitis C virus; assay: Antiviral activity against HCV subgenomic replicon assessed as inhibition of replication by qRT-PCR analysis; format: functional, organism-based, Hepacivirus hominis
EC50 [2] [µg/mL],SMILES,Ratio EC50 [1]
0.038,C/C=C/C[C@@H](C)[C@@H](O)[C@H]1C(=O)N[C@@H]([C@@H](C)O)C(=O)N(C)[C@H](C)C(=O)N(C)[C@@H](CC(C)C)C(=O)N[C@@H](CC(C)C)C(=O)N(C)[C@@H](CC(C)C)C(=O)N[C@@H](C)C(=O)N[C@H](C)C(=O)N(C)[C@@H](CC(C)C)C(=O)N[C@@H](CC(C)C)C(=O)N(C)[C@@H](C(C)C)C(=O)N1C,2.5
0.096,C/C=C/C[C@@H](C)[C@@H](O)[C@H]1C(=O)N[C@@H]([C@@H](C)O)C(=O)N(C)CC(=O)N(C)[C@@H](CC(C)C)C(=O)N[C@@H](CC(C)C)C(=O)N(C)[C@@H](CC(C)C)C(=O)N[C@@H](C)C(=O)N[C@H](C)C(=O)N(C)[C@@H](CC(C)C)C(=O)N[C@@H](CC(C)C)C(=O)N(C)[C@@H](C(C)C)C(=O)N1C (cyclo(A[dA][NMeL]L[NMeV][MeBmt]T[Sar][NMeL]L[NMeL])),
